PubChem BioAssay AID330 (DTP/NCI, 2004)
“And” between values parts separate entries of the source, which are not always exact repeats. Equal entries are not always repeated. Inconclusive results and toxic doses are left out. Rule for the calls: active = survival T/C of 150% or more; inactive = T/C below 125% in these data.

Tested on: P388 leukemia ip, CD2F1 mice, survival T/C
Assay: NCI In Vivo Anticancer Drug Screen. Data for tumor model P388 Leukemia (intraperitoneal) in CD2F1 (CDF1) mice
Conditions: endpoint: median survival time, higher = longer survival
Procedure, shortened: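 Mice carrying the transplanted tumor received test compound or vehicle. Survival was recorded in each group, and the value is the treated-group measurement divided by that of the vehicle-treated control group.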

[1] = dose: 60.0 mg/kg/injection, schedule: Q01DX005 (ip), vehicle: saline with Tween-80
[2] = dose: 50.0 mg/kg/injection, schedule: Q01DX009 (ip), vehicle: saline with Tween-80
[3] = dose: 100.0 mg/kg/injection, schedule: Q01DX009 (ip), vehicle: saline with Tween-80
[4] = dose: 200.0 mg/kg/injection, schedule: Q01DX009 (ip), vehicle: saline with Tween-80
[5] = dose: 50.0 mg/kg/injection, schedule: Q01DX009 (ip), vehicle: Klucel (hydroxypropylcellulose) (HPC)
[6] = dose: 100.0 mg/kg/injection, schedule: Q01DX009 (ip), vehicle: Klucel (hydroxypropylcellulose) (HPC)
[7] = dose: 200.0 mg/kg/injection, schedule: Q01DX009 (ip), vehicle: Klucel (hydroxypropylcellulose) (HPC)
[8] = dose: 60.0 mg/kg/injection, schedule: Q01DX005 (ip), vehicle: saline
[9] = dose: 120.0 mg/kg/injection, schedule: Q01DX005 (ip), vehicle: saline
[10] = dose: 50.0 mg/kg/injection, schedule: Q01DX005 (ip), vehicle: Klucel (hydroxypropylcellulose) (HPC)
[11] = dose: 100.0 mg/kg/injection, schedule: Q01DX005 (ip), vehicle: Klucel (hydroxypropylcellulose) (HPC)
[12] = dose: 200.0 mg/kg/injection, schedule: Q01DX005 (ip), vehicle: Klucel (hydroxypropylcellulose) (HPC)
[13] = dose: 50.0 mg/kg/injection, schedule: Q01DX005 (ip), vehicle: saline with Tween-80
[14] = dose: 100.0 mg/kg/injection, schedule: Q01DX005 (ip), vehicle: saline with Tween-80
[15] = dose: 200.0 mg/kg/injection, schedule: Q01DX005 (ip), vehicle: saline with Tween-80
[16] = dose: 50.0 mg/kg/injection, schedule: Q01DX005 (ip), vehicle: saline
[17] = dose: 100.0 mg/kg/injection, schedule: Q01DX005 (ip), vehicle: saline
[18] = dose: 120.0 mg/kg/injection, schedule: Q01DX005 (ip), vehicle: saline with Tween-80
[19] = dose: 240.0 mg/kg/injection, schedule: Q01DX005 (ip), vehicle: saline with Tween-80

Measured: T/C

C[N+]1(C)CCOCC1
inactive: dose: 1.56 mg/kg/injection, schedule: Q01DX009 (ip), vehicle: saline 94 % of control | dose: 6.25 mg/kg/injection, schedule: Q01DX009 (ip), vehicle: saline 100 % of control and 101 % of control | dose: 12.5 mg/kg/injection, schedule: Q01DX009 (ip), vehicle: saline 98 % of control | dose: 25.0 mg/kg/injection, schedule: Q01DX009 (ip), vehicle: saline 88 % of control

CC(=O)OCc1c(-c2ccccc2)c(=O)c1=O
inactive: dose: 15.0 mg/kg/injection, schedule: Q01DX005 (ip), vehicle: saline with Tween-80 100 % of control | dose: 30.0 mg/kg/injection, schedule: Q01DX005 (ip), vehicle: saline with Tween-80 103 % of control | dose: 60.0 mg/kg/injection, schedule: Q01DX005 (ip), vehicle: Klucel (hydroxypropylcellulose) (HPC) 108 % of control | [1] 106 % of control

COC(=O)/C=C(\C)NC(=NC(C)(C)C)c1ccccc1
inactive: [2] 98 % of control | [3] 101 % of control | [4] 94 % of control

Nc1ncncc1-c1ccc(F)cc1
inactive: dose: 50.0 mg/kg/injection, schedule: Q01DX009 (ip), vehicle: saline 103 % of control | dose: 100.0 mg/kg/injection, schedule: Q01DX009 (ip), vehicle: saline 101 % of control

CC1C(c2ccccc2)OCCN1C(=S)Nc1ccc(S(=O)(=O)N2CCCCC2)cc1 (centres undefined)
inactive: [5] 86 % of control and 95 % of control | [6] 105 % of control | [7] 91 % of control and 95 % of control

CCN(CC)CCNc1ccccc1
inactive: [8] 99 % of control | [9] 99 % of control

Cn1c(C(C)(O)c2cc3c(Cl)nccc3n2C)cc2c(Cl)nccc21
inactive: [10] 103 % of control | [11] 105 % of control | [12] 106 % of control

Cc1ccn2ncnc2c1
inactive: [2] 101 % of control | [3] 102 % of control | [4] 91 % of control

Cc1cc(=O)n(-c2ccc([N+](=O)[O-])cc2Cl)c(C)c1C(=O)O
inactive: [13] 103 % of control | [14] 96 % of control | [15] 106 % of control

O=C1CCC/C1=C1/SS/C(=C2/CCCC2=O)S1
inactive: [5] 101 % of control | [6] 102 % of control | [7] 98 % of control

CN1COc2c(n(C)c(=O)[nH]c2=O)C1
inactive: [16] 102 % of control and 106 % of control | [17] 114 % of control and 115 % of control

O=C(/C=C/c1ccc2c(c1)OCO2)c1ccccc(=O)c1O
inactive: dose: 25.0 mg/kg/injection, schedule: Q01DX005 (ip), vehicle: Klucel (hydroxypropylcellulose) (HPC) 95 % of control | [10] 100 % of control | [11] 101 % of control | [12] 118 % of control

Cc1ccc(S(=O)(=O)N(CCc2ccc(Cl)cc2)S(=O)(=O)c2ccc(C)cc2)cc1
inactive: [5] 109 % of control | [6] 94 % of control | [7] 93 % of control

COC(=O)n1c(=O)oc2ccc(Br)cc21
inactive: [10] 104 % of control | [11] 106 % of control | [12] 102 % of control

c1ccc(-c2nnc3nn4c(-c5ccccc5)cnnc4c3c2-c2ccccc2)cc1
inactive: [10] 93 % of control | [11] 91 % of control | [12] 90 % of control

CCOc1nc(OC)c(Cc2c(OC)nc(OCC)c3c2CCCC3)c2c1CCCC2
inactive: dose: 47.5 mg/kg/injection, schedule: Q01DX005 (ip), vehicle: saline + Tween-80 + alcohol 102 % of control | dose: 95.0 mg/kg/injection, schedule: Q01DX005 (ip), vehicle: saline + Tween-80 + alcohol 90 % of control | dose: 190.0 mg/kg/injection, schedule: Q01DX005 (ip), vehicle: saline + Tween-80 + alcohol 87 % of control

CCc1nc(N)nc(N)c1-c1ccc(NC2CCCCC2)c([N+](=O)[O-])c1
inactive: [1] 101 % of control | [18] 95 % of control | [19] 94 % of control

CC(C)C(N)C(=O)O (centres undefined)
inactive: [5] 100 % of control | [6] 100 % of control | [7] 91 % of control

O=C(O)c1cc(I)cc(I)c1
inactive: dose: 37.5 mg/kg/injection, schedule: Q01DX009 (ip), vehicle: saline with Tween-80 99 % of control | dose: 75.0 mg/kg/injection, schedule: Q01DX009 (ip), vehicle: saline with Tween-80 104 % of control | dose: 100.0 mg/kg/injection, schedule: Q04DX003 (ip), vehicle: saline with Tween-80 98 % of control | dose: 150.0 mg/kg/injection, schedule: Q01DX009 (ip), vehicle: saline with Tween-80 95 % of control | dose: 200.0 mg/kg/injection, schedule: Q04DX003 (ip), vehicle: saline with Tween-80 96 % of control | dose: 400.0 mg/kg/injection, schedule: Q04DX003 (ip), vehicle: saline with Tween-80 96 % of control

C=C(C)c1nc(N)nc(Nc2ccccc2)n1
inactive: [10] 103 % of control | [11] 111 % of control | [12] 106 % of control

CC1CCC(C)N(C)C1 (centres undefined)
inactive: dose: 25.0 mg/kg/injection, schedule: Q01DX005 (ip), vehicle: saline with Tween-80 98 % of control | [13] 102 % of control

COC(=O)C1(CC(=O)c2cccs2)NC(=S)NC(=O)C1C#N (centres undefined)
inactive: [8] 98 % of control | [9] 100 % of control | dose: 240.0 mg/kg/injection, schedule: Q01DX005 (ip), vehicle: saline 94 % of control

O=S1(=O)CCCN1c1ccccn1
inactive: [1] 102 % of control | [18] 105 % of control | [19] 101 % of control

O=C1OC(=O)C23Cc4ccccc4CC12CC1Cc2ccccc2CC1C3 (centres undefined)
inactive: [5] 100 % of control | [6] 88 % of control | [7] 94 % of control

COc1ccc(C2c3cc(OC(C)=O)c(OC)cc3Oc3cc(OC)c(OC(C)=O)cc32)cc1
inactive: [10] 96 % of control | [11] 93 % of control | [12] 87 % of control

O=C(O)CNc1ncnc2c1CCc1ccccc1-2
inactive: dose: 100.0 mg/kg/injection, schedule: Q04DX002 (ip), vehicle: saline 100 % of control | dose: 200.0 mg/kg/injection, schedule: Q04DX002 (ip), vehicle: saline 99 % of control | dose: 400.0 mg/kg/injection, schedule: Q04DX002 (ip), vehicle: saline 91 % of control

CCC(=O)Nc1cc(C(F)(F)F)cc2[nH]c(C)nc12
inactive: [13] 97 % of control | [14] 99 % of control | [15] 100 % of control

CC/C=C\C/C=C\C/C=C\CCCCCCCC(=O)O
inactive: dose: 40.0 mg/kg/injection, schedule: Q01DX009 (ip), vehicle: Klucel (hydroxypropylcellulose) (HPC) 92 % of control | dose: 80.0 mg/kg/injection, schedule: Q01DX009 (ip), vehicle: Klucel (hydroxypropylcellulose) (HPC) 100 % of control | dose: 160.0 mg/kg/injection, schedule: Q01DX009 (ip), vehicle: Klucel (hydroxypropylcellulose) (HPC) 98 % of control | dose: 320.0 mg/kg/injection, schedule: Q01DX009 (ip), vehicle: Klucel (hydroxypropylcellulose) (HPC) 95 % of control

CCOC(=O)COc1ccc(Cc2ccc3c(c2)OCO3)cc1C
inactive: [13] 97 % of control | [14] 97 % of control | [15] 93 % of control

CC(=NC(C)(C)C)N1CCCC1
inactive: dose: 12.5 mg/kg/injection, schedule: Q01DX005 (ip), vehicle: saline 102 % of control | dose: 25.0 mg/kg/injection, schedule: Q01DX005 (ip), vehicle: saline 102 % of control | [16] 101 % of control | [17] 95 % of control
